Results reported in PubChem BioAssay AID489032 (Sanford-Burnham Center for Chemical Genomics, 2010).
pEC50: −log10 of the molar value. Active and inactive are the calls of the source. No rule for the calls is given here.

What follows are molecules tested on UPR adaptive arm reporter cells, luciferase luminescence (assay: activators of adaptive UPR signalling, dose response, cell-based, luciferase luminescence (AID 489032)).

SMILES	EC50	pEC50
Nc1nc(Nc2ccccc2)nc(NC2CCCCC2)c1[N+](=O)[O-]	29.2 µM (inactive)	–
Cc1ccc(NC(=O)c2ccc(N/N=C/c3cccc(O)c3)c([N+](=O)[O-])c2)cc1	> 80 µM (inactive)	–
CCOc1cc(CNC(C)(C)CO)cc(Br)c1OCc1ccc(Cl)cc1Cl	–	4.70
CCCc1nc2c(c(=O)c3ccccc3n2C)c(=O)n1C1CCCCCC1	> 80 µM (inactive)	–
COc1ccc(C(CCNC(C)c2ccccc2)c2ccc(F)cc2)cc1 (centres undefined)	> 80 µM (inactive)	–
Cc1ccc(S(=O)(=O)Cc2cc(F)c([N+](=O)[O-])cc2[N+](=O)[O-])cc1	> 80 µM (inactive)	–
C/C(=N\Nc1ncnc2sc(C)c(C)c12)c1ccccn1	> 80 µM (inactive)	–
COc1cc(SC#N)ccc1N=Cc1c(C)[nH]n(-c2ccc(C)c(C)c2)c1=O	> 80 µM (inactive)	–
CCOC(=O)Cc1csc(/N=C/c2c(O)n(-c3ccc(C)c(C)c3)c(=O)c3ccccc23)n1	> 80 µM (inactive)	–
CCOC(=O)C1=C(C)N=c2s/c(=C3/C(=O)Nc4ccccc43)c(=O)n2C1c1ccc(C)cc1 (centres undefined)	> 80 µM (inactive)	–
COc1ccc(Cn2c(SCc3cc(C)ccc3C)nc3cc(OC)c(OC)cc3c2=N)cc1	> 80 µM (inactive)	–
O=c1cc(CN2CCN(c3ccccc3)CC2)c2cc(O)c(-c3ccccc3)cc2o1	27.4 µM (inactive)	–
CN(C)S(=O)(=O)c1ccc(N2CCCC2)c(C(=O)Nc2nc3ccccc3s2)c1	–	4.80
COc1cc2c(cc1NC(=S)NC(=O)/C=C/c1ccco1)oc1ccccc12	21.3 µM (inactive)	–
CC1(C)CC[C@@]23CC[C@]4(C)[C@@](OC2=O)(C3C1)[C@H]1O[C@H]1C1[C@@]2(C)CC[C@H](O)C(C)(C)C2CC[C@]14C (some centres undefined)	> 80 µM (inactive)	–
Cc1cccc(N2CCN(C(=S)Nc3ccc4nc(N5CCN(C)CC5)cc(C)c4c3)CC2C)c1 (centres undefined)	> 80 µM (inactive)	–
CCN(CC)S(=O)(=O)c1ccc2c(c1)C(=NO)c1cc(S(=O)(=O)N(CC)CC)ccc1-2	–	4.73
COc1ccc(-c2c(-c3cc(OC)cc(OC)c3)n(C)c3ccc(-c4cnc(N)nc4)cc23)cc1	36.1 µM (inactive)	–
Oc1ccc(-c2nc3ccc4ccccc4c3c3c2CCC3)cc1O	28.4 µM (inactive)	–
Cc1ccc(-c2nnn(CC(=O)Nc3ccc(S(=O)(=O)N4CCC(C)CC4)cc3)n2)cc1	> 80 µM (inactive)	–
CCOC(=O)c1nnc(-c2ccc(C)cc2)nc1Sc1cccc(Cl)c1	> 80 µM (inactive)	–
CCN(CC)c1ccc(N=Cc2c(O)n(-c3ccc(Cl)cc3)c(=O)[nH]c2=O)cc1	22.7 µM (inactive)	–

SMILES	EC50	pEC50
Cc1ccnc(N/C=C(\C#N)c2nc(-c3cccc(Br)c3)cs2)c1	20.7 µM (inactive)	–
CCOc1cc(/C=C2/C(=N)N3C=CSC3=NC2=O)ccc1OCCCOc1ccccc1C	> 80 µM (inactive)	–
CCOc1ccc2nc(NC3=NC(c4ccc(OC)cc4)CC(=O)N3)nc(C)c2c1 (centres undefined)	–	4.81
CCCOC(=O)c1cccc(Nc2nc(-c3cccnc3)nc3ccccc23)c1	> 80 µM (inactive)	–
CCN(CC)S(=O)(=O)c1ccc(N/N=C(\C)c2ccc3c(c2)OCO3)c([N+](=O)[O-])c1	22.1 µM (inactive)	–
COc1ccc(/C=N/NC(=O)c2cccc([N+](=O)[O-])c2)c2ccccc12	> 80 µM (inactive)	–
CC1CCc2cc(F)ccc2N1C(=O)CSc1nnc2c(n1)[nH]c1ccc(F)cc12 (centres undefined)	> 80 µM (inactive)	–
NS(=O)(=O)c1ccc(N/N=C/c2cn(-c3ccccc3)nc2-c2cccs2)c([N+](=O)[O-])c1	> 80 µM (inactive)	–
O=C(Nc1cccc(-c2nc3cccnc3s2)c1)C1c2ccccc2Oc2ccccc21	–	5.33
CCCn1c(Nc2nc3ccccc3n2C)nc2ccccc21	> 80 µM (inactive)	–
Cc1ccc(Nc2nc(NCc3ccco3)c3ccccc3n2)cc1	–	4.75
CCc1ccccc1NC(=O)C(CC)Sc1nc2cc3c(cc2c(=O)n1Cc1ccco1)OCO3 (centres undefined)	–	4.84
Cc1ccc(-c2cc(C(F)F)n3ncc(C(=O)N4CCc5ccccc54)c3n2)cc1	27.2 µM (inactive)	–
N#C/C(=C\c1ccc(OCc2ccccc2)cc1)C(=O)Nc1nc2c(s1)CCN(Cc1ccccc1)C2	> 80 µM (inactive)	–
c1cc(SC2CCCCC2)cc(-c2nc3cnccn3c2NC2CCCCC2)c1	28.9 µM (inactive)	–
CCOC(=O)N1CCN(S(=O)(=O)c2ccc(C(=O)Nc3nc4c(s3)CC(C)CC4)cc2)CC1 (centres undefined)	> 80 µM (inactive)	–
Brc1ccc(C2=Nn3c(nnc3-c3n[nH]c4c3CCC4)SC2)cc1	28.3 µM (inactive)	–
Cc1nc2ccccc2n1-c1nc(-c2ccco2)cc(C(F)(F)F)n1	> 80 µM (inactive)	–
CCOC(=S)SCC(=O)Nc1nc(-c2ccc(Br)cc2)cs1	> 80 µM (inactive)	–
CN(C)CC/C=C1\c2ccc(F)cc2Sc2cc(F)c(Cl)cc21	–	4.80
COc1ccc(-c2ccc(C#N)c(SCC(=O)Nc3sc4c(c3C#N)CCC4)n2)cc1OC	> 80 µM (inactive)	–
COc1cc(/C=C(/C#N)c2nc3ccccc3[nH]2)ccc1OCC(=O)Nc1ccccc1C	> 80 µM (inactive)	–
